Common to all, as to assay: radioligand binding, Q-sepharose adsorption, scintillation counting
In assay [1] the target is T1, Pry3 CAP domain (Pry3-CAP) (Saccharomyces cerevisiae, UniProt P47033).
T1 sequence (P47033 18-161): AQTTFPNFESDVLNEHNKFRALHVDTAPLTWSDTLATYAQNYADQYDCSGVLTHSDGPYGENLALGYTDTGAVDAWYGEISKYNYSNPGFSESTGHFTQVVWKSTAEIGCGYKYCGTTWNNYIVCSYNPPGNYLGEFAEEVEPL

Assay [2] concerns the target T2, Pry3 CAP domain (Pry3-CAP) (Saccharomyces cerevisiae, UniProt P47033, V117M).
T2 sequence (P47033 18-161 V117M): T1 sequence (P47033 18-161) with V100M
To be noted: labelled compound; 20 mM Tris pH 7.5, 30 mM NaCl, 0.05% Triton X-100, 30°C, 1 h.

Another assay addresses T3, Pry1 CAP domain (Saccharomyces cerevisiae, UniProt P47032).
T3 sequence (P47032 20-299 limits assumed): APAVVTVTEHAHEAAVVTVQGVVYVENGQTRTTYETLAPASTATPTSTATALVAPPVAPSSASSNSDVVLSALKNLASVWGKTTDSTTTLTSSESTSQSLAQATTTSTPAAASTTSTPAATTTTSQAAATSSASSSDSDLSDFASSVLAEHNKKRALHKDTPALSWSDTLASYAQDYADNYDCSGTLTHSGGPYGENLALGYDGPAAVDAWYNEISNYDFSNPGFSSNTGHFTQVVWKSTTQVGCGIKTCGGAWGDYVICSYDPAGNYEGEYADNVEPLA
From the text:
radioligand binding, Q-sepharose adsorption, scintillation counting on Pry1 CAP domain | Polyhistidine-tagged versions of the CAP domain of Pry1, Pry3 and mutant versions of Pry3 | The affinity of Pry3 to palmitic acid is thus similar to that of Pry1

Assay [3] concerns the target T4, Pry3 CAP domain (Pry3-CAP) (Saccharomyces cerevisiae, UniProt P47033, P105C/A155C).
T4 sequence (P47033 18-161 P105C/A155C): T1 sequence (P47033 18-161) with P88C, A138C
To be noted: labelled compound; 20 mM Tris pH 7.5, 30 mM NaCl, 0.05% Triton X-100, 30°C, 1 h.

Assay [4] has as its target T5, Pry3 CAP domain (Pry3-CAP) (Saccharomyces cerevisiae, UniProt P47033, C142S).
T5 sequence (P47033 18-161 C142S): T1 sequence (P47033 18-161) with C125S
The following applies: labelled compound; 20 mM Tris pH 7.5, 30 mM NaCl, 0.05% Triton X-100, 30°C, 1 h.

The term Kd denotes the concentration at which binding is half-saturated. A high value points to weaker binding.

Where a chain is given by its changes, count along the chain named. Read-outs that look alike come from different tables or passages of the source.

On to `CCCCCCCCCCCCCCCC(=O)O` [palmitic acid], for which the Kd in assay [1] turned out to be 114 µM; at Pry1 CAP domain, 111 µM. For the same molecule, the “radioligand binding, Q-sepharose adsorption, scintillation counting” value in assay [2] is “Pry3^V117M failed to efficiently bind palmitic acid in vitro”.

Turning to `CC(C)CCC[C@@H](C)[C@H]1CC[C@H]2[C@@H]3CC=C4C[C@@H](O)CC[C@]4(C)[C@H]3CC[C@]12C` [cholesterol], the Kd in assay [1] turned out to be 13.1 µM; at Pry1 CAP domain (labelled compound, 20 mM Tris pH 7.5, 30 mM NaCl, 0.05% Triton X-100, 30°C, 1 h), 1.88 µM. In addition, the “radioligand binding, Q-sepharose adsorption, scintillation counting” value in assay [3] is recorded as “decreased sterol-binding of Pry3-CAP^P105C, A155C to background levels”; in assay [4] it was “as present in Pry3-CAP^C142S, disrupted sterol binding in vitro”.
